{"source": "patent US20050009924A1", "about": "(priority 2003, published 2005)", "key": {"[1]": {"test_system": "transcriptional activity of hTERT", "experiment": "SEAP reporter assay of hTERT expression, PhTERT-SEAP (H1299)", "assay_type": "cell-based, human", "settings": "PhTERT-SEAP(hTERT-H1299)", "description": "(§1) Secreted alkaine phosphatase was used as the reporter system to monitor the transcriptional activity of hTERT. Here, about […] each were grown in 96-well plates and incubated at 37° C. for 24 h and changed with fresh media. Varying amounts of drugs were added and cells were incubated for another 24 h. Culture media were collected and heated at 65° C. for 10 min to inactivate heat-labile phosphatases. An equal amount of SEAP buffer (2 M diethanolamine, 1 mM MgCl2, and 20 mM […]) was added to the media and p-nitrophenyl phosphate was added to a final concentration of 12 mM. Absorptions at 405 nm were taken, and the rate of absorption increase is determined.\n(§2) Culture media were changed every 3 days. […] The stable clones were selected using G418."}, "[2]": {"test_system": "hepatitis B virus transfected hepatoma cell lines, HepG 2.2.15 cells", "experiment": "Cytotoxicity assay, 2.2.15 cells", "assay_type": "cell-based, human", "settings": "48 h of drug exposure"}, "rat glioma C6 cells": {"test_system": "rat glioma C6 cells", "experiment": "Cytotoxicity assay (XTT colorimetric), C6 cells", "assay_type": "cell-based", "settings": "48 h of drug exposure"}, "human hepatoma G2 cells": {"test_system": "human hepatoma G2 cells", "experiment": "Cytotoxicity assay (XTT colorimetric), Hep G2", "assay_type": "cell-based", "settings": "48 h of drug exposure"}, "[3]": {"test_system": "non-small-cell lung cancer cells H1299", "experiment": "MTT relative viability, PhTERT-SEAP (H1299) cells", "settings": "PhTERT-SEAP(hTERT-H1299)"}, "hTERT-BJ1 cells": {"test_system": "hTERT-BJ1 cells", "experiment": "MTT relative viability, PhTERT-SEAP (hTERT-BJ1) cells", "settings": "PhTERT-SEAP (hTERT-BJ1)"}, "[4]": {"test_system": "transcriptional activity of hTERT", "experiment": "SEAP reporter assay of hTERT expression, PhTERT-SEAP (hTERT-BJ1)", "assay_type": "cell-based, human", "settings": "PhTERT-SEAP (hTERT-BJ1)", "description": "as §1, §2"}}, "data": [{"compound": "1,4-Bis(2,5-trifluorobenzoylamido)-9,10-anthracenedione [VI29]", "values": [{"measurement": "Relative SEAP activity (%)", "setting": "[1]; 1.3 μM", "value": "106 ± 6.7", "unit": "%"}, {"measurement": "SEAP/vibility", "setting": "[1]; 1.3 μM", "value": 1.07}, {"measurement": "Relative SEAP activity (%)", "setting": "[1]; 13 μM", "value": "105 ± 7.9", "unit": "%"}, {"measurement": "SEAP/vibility", "setting": "[1]; 13 μM", "value": 1.32}, {"measurement": "Relative SEAP activity (%)", "setting": "[1]; 139 μM", "value": "94 ± 10.2", "unit": "%"}, {"measurement": "SEAP/vibility", "setting": "[1]; 139 μM", "value": 2.56}, {"measurement": "IC50", "setting": "[2]", "value": 2.2, "unit": "µM"}, {"measurement": "IC50", "setting": "rat glioma C6 cells", "value": 2.82, "unit": "µM"}, {"measurement": "IC50", "setting": "human hepatoma G2 cells", "value": "> 20", "unit": "µM"}, {"measurement": "Relative MTT viability (%)", "setting": "[3]; 1.3 μM", "value": "99 ± 8.6", "unit": "%"}, {"measurement": "Relative MTT viability (%)", "setting": "[3]; 13 μM", "value": "79 ± 10.3", "unit": "%"}, {"measurement": "Relative MTT viability (%)", "setting": "[3]; 139 μM", "value": "37 ± 8.8", "unit": "%"}, {"measurement": "Relative MTT viability (%)", "setting": "hTERT-BJ1 cells; 1.3 μM", "value": "107 ± 6.4", "unit": "%"}, {"measurement": "Relative MTT viability (%)", "setting": "hTERT-BJ1 cells; 13 μM", "value": "85 ± 4.8", "unit": "%"}, {"measurement": "Relative MTT viability (%)", "setting": "hTERT-BJ1 cells; 139 μM", "value": "56 ± 4.6", "unit": "%"}, {"measurement": "Relative SEAP activity (%)", "setting": "[4]; 1.3 μM", "value": "16 ± 31.8", "unit": "%"}, {"measurement": "SEAP/vibility", "setting": "[4]; 1.3 μM", "value": 0.15}, {"measurement": "Relative SEAP activity (%)", "setting": "[4]; 13 μM", "value": "24 ± 21.5", "unit": "%"}, {"measurement": "SEAP/vibility", "setting": "[4]; 13 μM", "value": 0.28}, {"measurement": "Relative SEAP activity (%)", "setting": "[4]; 139 μM", "value": "26 ± 36.9", "unit": "%"}, {"measurement": "SEAP/vibility", "setting": "[4]; 139 μM", "value": 0.47}]}, {"compound": "1,4-Bis[3-(aminomethyl)cyclopropanepropionamido]-9,10-anthracenedione [VI37]", "values": [{"measurement": "Relative SEAP activity (%)", "setting": "[1]; 2.0 μM", "value": "95 ± 4.2", "unit": "%"}, {"measurement": "SEAP/vibility", "setting": "[1]; 2.0 μM", "value": 0.88}, {"measurement": "Relative SEAP activity (%)", "setting": "[1]; 20 μM", "value": "91 ± 8.9", "unit": "%"}, {"measurement": "SEAP/vibility", "setting": "[1]; 20 μM", "value": 1.09}, {"measurement": "Relative SEAP activity (%)", "setting": "[1]; 204 μM", "value": "52 ± 4.4", "unit": "%"}, {"measurement": "SEAP/vibility", "setting": "[1]; 204 μM", "value": 0.77}, {"measurement": "IC50", "setting": "[2]", "value": 1.71, "unit": "µM"}, {"measurement": "IC50", "setting": "rat glioma C6 cells", "value": 0.4, "unit": "µM"}, {"measurement": "IC50", "setting": "human hepatoma G2 cells", "value": 0.32, "unit": "µM"}, {"measurement": "Relative MTT viability (%)", "setting": "[3]; 2.0 μM", "value": "108 ± 7.8", "unit": "%"}, {"measurement": "Relative MTT viability (%)", "setting": "[3]; 20 μM", "value": "83 ± 1.6", "unit": "%"}, {"measurement": "Relative MTT viability (%)", "setting": "[3]; 204 μM", "value": "67 ± 9.8", "unit": "%"}, {"measurement": "Relative MTT viability (%)", "setting": "hTERT-BJ1 cells; 2.0 μM", "value": "95 ± 2.5", "unit": "%"}, {"measurement": "Relative MTT viability (%)", "setting": "hTERT-BJ1 cells; 20 μM", "value": "84 ± 1.5", "unit": "%"}, {"measurement": "Relative MTT viability (%)", "setting": "hTERT-BJ1 cells; 204 μM", "value": "35 ± 3.7", "unit": "%"}, {"measurement": "Relative SEAP activity (%)", "setting": "[4]; 2.0 μM", "value": "97 ± 13.8", "unit": "%"}, {"measurement": "SEAP/vibility", "setting": "[4]; 2.0 μM", "value": 1.02}, {"measurement": "Relative SEAP activity (%)", "setting": "[4]; 20 μM", "value": "124 ± 22.8", "unit": "%"}, {"measurement": "SEAP/vibility", "setting": "[4]; 20 μM", "value": 1.48}, {"measurement": "Relative SEAP activity (%)", "setting": "[4]; 204 μM", "value": "105 ± 17.7", "unit": "%"}, {"measurement": "SEAP/vibility", "setting": "[4]; 204 μM", "value": 3.01}]}, {"compound": "O=C(Nc1ccc(NC(=O)c2ccccc2Cl)c2c1C(=O)c1ccccc1C2=O)c1ccccc1Cl", "note": "[VI2, 1,4-Bis(2-chlorobenzoylamido)-9,10-anthracenedione]", "values": [{"measurement": "Relative SEAP activity (%)", "setting": "[1]; 1.9 μM", "value": "108 ± 10.5", "unit": "%"}, {"measurement": "SEAP/vibility", "setting": "[1]; 1.9 μM", "value": 0.94}, {"measurement": "Relative SEAP activity (%)", "setting": "[1]; 19 μM", "value": "105 ± 7.7", "unit": "%"}, {"measurement": "SEAP/vibility", "setting": "[1]; 19 μM", "value": 1.47}, {"measurement": "Relative SEAP activity (%)", "setting": "[1]; 194 μM", "value": "100 ± 8.9", "unit": "%"}, {"measurement": "SEAP/vibility", "setting": "[1]; 194 μM", "value": 1.68}, {"measurement": "IC50", "setting": "[2]", "value": "> 20", "unit": "µM"}, {"measurement": "IC50", "setting": "rat glioma C6 cells", "value": "> 20", "unit": "µM"}, {"measurement": "IC50", "setting": "human hepatoma G2 cells", "value": "> 20", "unit": "µM"}, {"measurement": "Relative MTT viability (%)", "setting": "[3]; 1.9 μM", "value": "114 ± 5.4", "unit": "%"}, {"measurement": "Relative MTT viability (%)", "setting": "[3]; 19 μM", "value": "72 ± 3.6", "unit": "%"}, {"measurement": "Relative MTT viability (%)", "setting": "[3]; 194 μM", "value": "60 ± 7.9", "unit": "%"}, {"measurement": "Relative MTT viability (%)", "setting": "hTERT-BJ1 cells; 1.9 μM", "value": "116 ± 7.7", "unit": "%"}, {"measurement": "Relative MTT viability (%)", "setting": "hTERT-BJ1 cells; 19 μM", "value": "109 ± 2.2", "unit": "%"}, {"measurement": "Relative MTT viability (%)", "setting": "hTERT-BJ1 cells; 194 μM", "value": "95 ± 2.0", "unit": "%"}, {"measurement": "Relative SEAP activity (%)", "setting": "[4]; 1.9 μM", "value": "110 ± 20.1", "unit": "%"}, {"measurement": "SEAP/vibility", "setting": "[4]; 1.9 μM", "value": 0.95}, {"measurement": "Relative SEAP activity (%)", "setting": "[4]; 19 μM", "value": "96 ± 33.4", "unit": "%"}, {"measurement": "SEAP/vibility", "setting": "[4]; 19 μM", "value": 0.88}, {"measurement": "Relative SEAP activity (%)", "setting": "[4]; 194 μM", "value": "95 ± 36.6", "unit": "%"}, {"measurement": "SEAP/vibility", "setting": "[4]; 194 μM", "value": 1.00}]}]}
